# Test results reported in publication PMC7935131 (Blood cancer discovery, 2020).
# Key:
# TET2^MT cells = assay: In vitro toxicity to TET2^MT cells; type: cell-based
# [1] = system: α-KG-dependent histone dioxygenases (H3K4 methylation); assay: Histone H3K4 methylation in treated cells; type: cell-based
Compound,LD50 for TET2^MT (TET2^MT cells),Change in H3K4 methylation [1]
"O=C(O)CCC(O)C(=O)O (centres unmarked) [2HG, 2-hydroxyglutarate]",in millimolar ranges,
"COC(=O)CNC(=O)C(=O)OC [DMOG, methyl 2-[(2-methoxy-2-oxoethyl)amino]-2-oxoacetate]",,significantly affected
